From patent US5391540A, “Substituted pyridine compounds” (Rohm and Haas Company, priority 1993, dated 1995)

Tests used:
Format in all cases: in vivo
[1] = tested on: Wibw; assay: plant injury after spraying emerged plants (Table D); parameters: scale not given here
Procedure, shortened: (§1)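 Injury to emerged plants was assessed after spraying. Plants came from seeds or propagules sown into sterilized, sieved silt-loam topsoil under a 1.27 cm layer of 50% topsoil with peat moss, vermiculite and wetting agent, then kept on greenhouse capillary mats with subirrigation.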

[2] = tested on: Vele; assay: as above; parameters: scale not given here
Procedure, shortened: as §1

[3] = tested on: Hese; assay: as above; parameters: scale not given here
Procedure, shortened: as §1

[4] = tested on: Cotz; assay: as above; parameters: scale not given here
From the text: (§2) Topsoil (silt loam) is sieved through a screen having 1.27 cm openings. In some of the tests the soil was mixed with fertilizer (1225 g/cu. m of 12/5/9 containing isobutylidene diurea), while in other tests the fertilizer was omitted. This mixture is steam sterilized and then placed in aluminum pans 6.985 cm deep having ten holes in the bottom each 0.635 cm in diameter. The soil mixture is compacted to a depth of 1.27 cm. from the top of the pan. A predetermined number of seeds of each of several dicotyledonous and monocotyledonous annual plant species and/or vegetative propagules for the perennial plant species are placed on the soil and pressed into the soil surface. The seeds and/or vegetative propagules are covered with 1.27 cm of a mixture of 50% topsoil and 50% of a mixture of Canadian sphagnum peat moss, vermiculite and a wetting agent. The pans are then placed on a capillary mat on a greenhouse bench and subirrigated as needed. After the plants reach the desired stage (9 to 14 days, 1 to 3 true leaf stage), each pan (except the control pans) is removed to a spraying chamber and sprayed by means of an atomizer, operating at a spray pressure of 170.3 kPa ([…]) at the application rates noted in Table D. In the spray solution is an amount of an emulsifying agent mixture (35% butylamine salt of dodecylbenzenesulfonic acid and 65% tall oil condensed with ethylene oxide in the ratio of 11 mols of ethylene oxide/mol of tall oil) to give a spray solution or suspension. The spray solution or suspension contains a sufficient amount of the candidate chemical in order to give application rates of the active ingredient corresponding to those shown in Table D below while applying a total amount of solution or suspension equivalent to 1870 L/Ha (200 gallons/acre). The pans are returned to the greenhouse and watered as before and the injury to the plants as compared to the control pans is observed at approximately 10-14 days (usually 11 days).
(§3) In the following Table D the legends used to identify the plant species are the same as those used in the preceding Table B.

[5] = tested on: Rape; assay: as above; parameters: scale not given here
From the text: as §2, §3

[6] = tested on: Jiwe; assay: as above; parameters: scale not given here
From the text: as §2, §3

[7] = tested on: Dobr; assay: as above
From the text: as §2, §3

[8] = tested on: Indian Mustard; assay: Pre-emergent herbicidal activity (Table A); details: Brassica juncea, pre-emergence, Inmu, 11.2 kg/ha, 10-14 days, read-out: herbicidal rating (% inhibition)
Procedure, shortened: (§4)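 Compound incorporated into the cover-soil layer over sown seed at a rate equivalent to 11.2 kg/ha (acetone or water carrier). Greenhouse growth with watering as needed; ratings reflect percent inhibition per species, recorded around day 11 (range 10–14).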

[9] = tested on: Seedling Johnsongrass; assay: Pre-emergent herbicidal activity (Table A); details: Sorghum halepense, pre-emergence, Sejg, 11.2 kg/ha, 10-14 days, read-out: herbicidal rating (% inhibition)
Procedure, shortened: as §4

[10] = tested on: Annual Bluegrass; assay: Pre-emergent herbicidal activity (Table A); details: pre-emergence, Anbg, 11.2 kg/ha, 10-14 days, read-out: herbicidal rating (% inhibition)
Procedure, shortened: as §4

[11] = tested on: Wild Buckwheat; assay: Pre-emergent herbicidal activity (Table A); details: Fallopia convolvulus, pre-emergence, Wibw, 11.2 kg/ha, 10-14 days, read-out: herbicidal rating (% inhibition)
Procedure, shortened: as §4

SMILES | plant injury rating, Wibw ([1]; 0.0701 kg/ha) | plant injury rating, Wibw ([1]; 0.2803 kg/ha) | plant injury rating, Wibw ([1]; 5.6050 kg/ha) | plant injury rating, Vele ([2]; 0.0701 kg/ha) | plant injury rating, Vele ([2]; 0.2803 kg/ha) | plant injury rating, Vele ([2]; 5.6050 kg/ha) | plant injury rating, Hese ([3]; 0.0701 kg/ha) | plant injury rating, Hese ([3]; 0.2803 kg/ha) | plant injury rating, Hese ([3]; 5.6050 kg/ha) | plant injury rating, Cotz ([4]; 0.0701 kg/ha) | plant injury rating, Cotz ([4]; 0.2803 kg/ha) | plant injury rating, Cotz ([4]; 5.6050 kg/ha) | plant injury rating, Rape ([5]; 0.0701 kg/ha) | plant injury rating, Rape ([5]; 0.2803 kg/ha) | plant injury rating, Rape ([5]; 5.6050 kg/ha) | plant injury rating, Jiwe ([6]; 0.0701 kg/ha) | plant injury rating, Jiwe ([6]; 0.2803 kg/ha) | plant injury rating, Jiwe ([6]; 5.6050 kg/ha) | plant injury rating, Dobr ([7]; 0.0701 kg/ha) | plant injury rating, Dobr ([7]; 0.2803 kg/ha) | other results
COC(=O)c1c(OC)nc(C(F)(F)F)c(-c2nnc(C)o2)c1CC(C)C [Compound 103, 3-pyridinecarboxylic acid, 2-methoxy-5-(5-methy1-1,3,4-oxadiazo1-2-yl)-4-(2-methylpropyl)-6-(trifluoromethyl)-, methyl ester] | 0 | 0 | 2 | 0 | 0 | 2 | 0 | 0 | 3 | 0 | 0 | 0 | 0 | 0 | 3 | 0 | 0 | 2 | 0 | 0 | plant injury rating, Wibw ([1]; 1.1219 kg/ha): 1; plant injury rating, Vele ([2]; 1.1219 kg/ha): 0; plant injury rating, Hese ([3]; 1.1219 kg/ha): 1; plant injury rating, Cotz ([4]; 1.1219 kg/ha): 0; plant injury rating, Rape ([5]; 1.1219 kg/ha): 1; plant injury rating, Jiwe ([6]; 1.1219 kg/ha): 2; plant injury rating, Dobr ([7]; 1.1219 kg/ha): 0; plant injury rating, Dobr ([7]; 5.6050 kg/ha): 0; inhibition at 11200 g/ha [8]: 75 to 100%; inhibition at 11200 g/ha [9]: 75 to 100%; inhibition at 11200 g/ha [10]: 75 to 100%; inhibition at 11200 g/ha [11]: 75 to 100%
COC(=O)c1c(OC)nc(C(F)(F)F)c(C2SCCS2)c1CC(C)C [Compound 93, 3-pyridinecarboxylic acid, 5-(1,3-dithiolan-2-yl)-2-methoxy-4-(2-methylpropyl)-6-(trifluoromethyl)-, methyl ester] | 0 | 0 | 0 | 0 | 0 | 3 | 1 | 3 | 3 | 0 | 0 | 2 | 0 | 2 | 3 | 2 | 2 | 3 | 0 | 0 | plant injury rating, Wibw ([1]; 1.1210 kg/ha): 0; plant injury rating, Vele ([2]; 1.1210 kg/ha): 2; plant injury rating, Hese ([3]; 1.1210 kg/ha): 3; plant injury rating, Cotz ([4]; 1.1210 kg/ha): 0; plant injury rating, Rape ([5]; 1.1210 kg/ha): 3; plant injury rating, Jiwe ([6]; 1.1210 kg/ha): 3; plant injury rating, Dobr ([7]; 1.1210 kg/ha): 0; plant injury rating, Dobr ([7]; 5.6050 kg/ha): 0; inhibition at 11200 g/ha [8]: 75 to 100%; inhibition at 11200 g/ha [9]: 75 to 100%; inhibition at 11200 g/ha [10]: 75 to 100%; inhibition at 11200 g/ha [11]: 75 to 100%
